Measured values published in PubChem BioAssay (NCI).
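Test compounds were applied to cells in 96-well plates for 48 hours at 5 doses. GI50 marks 50% less growth. TGI marks complete inhibition of growth.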

What was measured:
Experiment in all cases: NCI tumour cell line growth inhibition, 48 h
SR leukemia = tested on: SR leukemia
HL-60(TB) leukemia = tested on: HL-60(TB) leukemia
NCI-H460 lung = tested on: NCI-H460 lung
SNB-19 CNS = tested on: SNB-19 CNS
RPMI-8226 leukemia = tested on: RPMI-8226 leukemia
SK-MEL-28 melanoma = tested on: SK-MEL-28 melanoma
A498 renal = tested on: A498 renal
NCI/ADR-RES ovarian = tested on: NCI/ADR-RES ovarian
DU-145 prostate = tested on: DU-145 prostate
HS 578T breast = tested on: HS 578T breast

SMILES	TGI (SR leukemia) [µM]	TGI (HL-60(TB) leukemia) [µM]	TGI (NCI-H460 lung) [µM]	TGI (SNB-19 CNS) [µM]	TGI (RPMI-8226 leukemia) [µM]	TGI (SK-MEL-28 melanoma) [µM]	TGI (A498 renal) [µM]	TGI (NCI/ADR-RES ovarian) [µM]	TGI (DU-145 prostate) [µM]	TGI (HS 578T breast) [µM]	GI50 (HL-60(TB) leukemia) [µM]	GI50 (DU-145 prostate) [µM]	GI50 (SNB-19 CNS) [µM]	GI50 (HS 578T breast) [µM]	GI50 (NCI/ADR-RES ovarian) [µM]	GI50 (RPMI-8226 leukemia) [µM]	GI50 (SK-MEL-28 melanoma) [µM]	GI50 (A498 renal) [µM]
CC1CCN(c2cc(-c3cc4ccccc4o3)oc(=O)c2C#N)CC1	> 100	> 100	> 100	> 100	> 100	> 100	> 100											
CC1=NN(C(=O)c2ccc(C)cc2)C(=O)C1N=Nc1ccccc1C(=O)O (stereo not given)		> 100	> 100	> 100	> 100	> 100	> 100	> 100										
O=C1Nc2ccccc2C1S(=O)(=O)c1ccccc1 (stereo not given)	> 100		> 100	> 100	> 100	> 100	> 100	> 100	> 100	> 100								
C/C(=N\Nc1nc2ccccc2n1C)c1ccc2ccccc2n1	3.73		32.1	> 100		37.3	15.6	6.71	14.5	63.8								
CC(C)(CC1(C)NC(=O)NC1=O)OCc1ccccc1 (stereo not given)	> 100		> 100	> 100	> 100	> 100	> 100	> 100	> 100	> 100								
COc1cccc2c1[C@H]1OC(=O)NC1CCCCC2 (stereo not given in full)		> 100	> 100	> 100	> 100	> 100	> 100											
CCCCCC(/C=C/[C@@H]1[C@@H](C(O)CCCCCC(=O)OC)C(=O)C[C@H]1O[Si](C)(C)C(C)(C)C)OCOCCOC (stereo not given in full)	> 31.6		> 100	29	> 25.7	33.3	42.7	51.8	36.9	27.2								
Cn1c(=O)n2n(c1=O)C(S(=O)c1ccccc1)C2 (stereo not given)	> 100		> 100	> 100	> 100	> 100		> 100	> 100	> 100								
CCCCOCCOCCOC1=C(Cl)C(=O)c2c(O)ccc(O)c2C1=O	0.117		4.4	3.2	1.32	1.41	4.95	7.49	3.16	5.86								
O[C@]12c3ccccc3C1CCCCC2N1CCOCC1 (stereo not given in full)	> 100	> 100	> 100	> 100	> 100	> 100												
CSC1(Cc2ccccn2)C(=O)Nc2cccc([N+](=O)[O-])c21 (stereo not given)	> 100	> 100	> 100	> 100	> 100	> 100		> 100	> 100	> 100								
Cn1cnnc1SC(F)(F)c1nc2ccccc2o1	> 100		> 100		> 100	> 100	> 100	> 100	> 100									
CC(=O)Oc1ccc2cc(Oc3ccccc3)c(=O)oc2c1	> 100	> 100	> 100	> 100	> 100	> 100	> 100		> 100	> 100								
CC1=NNC(=O)[C@H]2[C@H]1CCC1[C@@H]2CC[C@]2(C)[C@@H](O)CC[C@@H]12 (stereo not given in full)		> 100	> 100	> 100	> 100	> 100	> 100	> 100	> 100	> 100								
N#C[C@H](C(=O)c1ccccc1F)c1nc2ccccc2[nH]1	> 100		> 100	> 100	> 100	> 100	> 100	> 100	> 100	> 100								
CC(=O)Oc1ccc(/C=C/C(=O)NCCOC(=O)/C=C/c2ccc(OC(C)=O)c(OC(C)=O)c2)cc1OC(C)=O	> 100		> 100	> 100	90.5	> 100	> 100	> 100	> 100	> 100								
N/C(=N\N=C/c1cc([N+](=O)[O-])cc([N+](=O)[O-])c1O)NO		> 55	> 100	> 100	> 100	> 100	> 100	> 100										
COc1cccc(/C=N/[N-]C(N)=O)c1[O-].[OH3+].[Pd+2]	> 100		> 100	> 100	> 100	> 100	> 100											
CCN(CC)C(=S)S		33.3		> 100	> 100	> 84.6	> 100											

SMILES	TGI (SR leukemia) [µM]	TGI (HL-60(TB) leukemia) [µM]	TGI (NCI-H460 lung) [µM]	TGI (SNB-19 CNS) [µM]	TGI (RPMI-8226 leukemia) [µM]	TGI (SK-MEL-28 melanoma) [µM]	TGI (A498 renal) [µM]	TGI (NCI/ADR-RES ovarian) [µM]	TGI (DU-145 prostate) [µM]	TGI (HS 578T breast) [µM]	GI50 (HL-60(TB) leukemia) [µM]	GI50 (DU-145 prostate) [µM]	GI50 (SNB-19 CNS) [µM]	GI50 (HS 578T breast) [µM]	GI50 (NCI/ADR-RES ovarian) [µM]	GI50 (RPMI-8226 leukemia) [µM]	GI50 (SK-MEL-28 melanoma) [µM]	GI50 (A498 renal) [µM]
CC(=O)c1sc2c(c1O)c(=O)n(-c1ccccc1)c(=S)n2-c1ccccc1		> 100	> 100	> 100	> 100	> 100			> 100	> 100								
O=C1CC(=O)NC(=NN2C(=O)/C(=C/c3ccc(Cl)cc3)N=C2c2ccccc2)N1	21.3		22.9		58.2	33.6	31.7	31.8	> 100	30.6								
CC1(CCCCO)C=CC(S(=O)(=O)c2ccccc2)CC1 (stereo not given)	6.71		13.2	26.6	11	28.5	21.7	12.5	17.7									
CO[C@]12C[C@@H](CNC(=O)c3cc(Br)c[nH]3)O[C@H]1NC(=O)N2		> 100	> 100	> 100	> 100	> 100	> 100	> 100	> 100	> 100								
COc1ccc(/C=N/n2c(Cc3ccccc3)n[nH]c2=O)cc1			> 100	> 100	> 100	> 100	> 100	> 100	> 100	54.4								
O=C1NC2=NN=C(c3ccc(Br)cc3)CN2NC12c1ccccc1-c1ccccc12	> 100		> 100	> 100		> 100	> 100	> 100	> 100	> 100								
CCOC(=O)[C@@H]1C[C@@H]1c1ccc(O)c(O)c1	> 100		> 100	> 100	77	> 100		> 100	> 100	> 100								
Nc1ncnc2c1N=C(c1ccccc1)CC(c1ccccc1)N2 (stereo not given)	> 100			> 100	> 100	> 100		> 100	> 100	> 100								
Brc1ccc(-c2nc(-c3ccc(Br)cc3)n(-c3ccccc3)n2)cc1		> 100	> 100	> 100		> 100	> 100	> 100	> 100	> 100								
O=C1c2ccccc2/C=C\C(c2ccccc2)=N/N1c1ccccc1Cl		54.8	> 100	> 100	80.5	> 100	71.9	63.5	> 100	> 100								
CC(N)=O.[Cl][Pt][Cl].[NH-]c1ccn(C2OC(CO)C(O)C2O)c(=O)n1 (stereo not given)	> 100		> 100	> 100	> 100	> 100	> 100	> 100	> 100	> 100								
CC1=CC(=O)c2c(O)c3c(c(O)c2C1=O)C1C(O)C(C3=O)C23C(=O)c4c(O)c(C)cc(O)c4C(O)=C2C(=O)CC(O)C13 (stereo not given)	6.52	> 100	5.23	20.2		6.78	3.37		3.61	3.44								
O=C1c2ccccc2-n2c1nc1ccc(Cl)cc1c2=O	> 100		> 100	> 100	> 100		> 100	> 100	> 100									
N=C(N)c1ccc(N=Nc2c(O)ccc3cc(O)ccc23)cc1	> 100	> 100	> 100	> 100	> 100	> 100		> 100		> 100								
CCN1C(=O)N2C(OC)c3ccccc3C(Br)C2(OC)C1=O (stereo not given)	> 100	> 100	> 100	> 100	> 100	> 100	> 100											
CCCCOc1ccc(S(=O)(=O)/N=C(\N)Nc2ccc(Cl)cc2)cc1	28.7		31.5	33.3	45.8	32	24.6	31.5	34.3	40.2								
CCN(CC)C(=S)SSCCO		8.96		> 100	39.5	29.3	> 100	32.5	> 100	34.7	2.17	37.8	95.4	16	17.1	14.4	15.8	85
CCOP(=O)(/C=C\n1ccc(=O)[nH]c1=O)OCC		> 100		> 100	> 100	> 100	> 100	> 100	> 100									
Nc1ncnc2c1ncn2CCOC(c1ccccc1)P(=O)(O)O (stereo not given)	> 100	> 100	> 100	> 100		> 100	> 100											
